Experimental data taken from patent publication US7553815B1, “Therapeutic use” (priority 1999, dated 2009).
Marks after values point to notes of the source that are not given here.

System: normal breast epithelium
Assay: Normal breast xenografts: proliferation (Ki67 LI) and apoptosis (AI) (Example 2)
Format: in vivo, human

## COc1cc2ncnc(Nc3ccc(F)c(Cl)c3)c2cc1OCCCN1CCOCC1 [ZD1839, N-(3-chloro-4-fluorophenyl)-7-methoxy-6-(3-morpholinopropoxy)quinazolin-4-amine]
Day 21, ratio of cell turnover
  Median LI/AI, Normal breast: 3.9***
Normal breast, Day 28, 10-200 mg/kg
  Dose response of epithelial proliferation (Ki67 LI), FIG. 2: not in normal breast
